Reference: the Kinase Knowledgebase extract (Sharma et al. 2016)

How the values were obtained:
[1] = molecular target: EGFR (human) (UniProt P00533)
[2] = molecular target: EGFR (human) (UniProt P00533); conditions: a431

Chain of EGFR (human) (P00533 whole entry, looked up): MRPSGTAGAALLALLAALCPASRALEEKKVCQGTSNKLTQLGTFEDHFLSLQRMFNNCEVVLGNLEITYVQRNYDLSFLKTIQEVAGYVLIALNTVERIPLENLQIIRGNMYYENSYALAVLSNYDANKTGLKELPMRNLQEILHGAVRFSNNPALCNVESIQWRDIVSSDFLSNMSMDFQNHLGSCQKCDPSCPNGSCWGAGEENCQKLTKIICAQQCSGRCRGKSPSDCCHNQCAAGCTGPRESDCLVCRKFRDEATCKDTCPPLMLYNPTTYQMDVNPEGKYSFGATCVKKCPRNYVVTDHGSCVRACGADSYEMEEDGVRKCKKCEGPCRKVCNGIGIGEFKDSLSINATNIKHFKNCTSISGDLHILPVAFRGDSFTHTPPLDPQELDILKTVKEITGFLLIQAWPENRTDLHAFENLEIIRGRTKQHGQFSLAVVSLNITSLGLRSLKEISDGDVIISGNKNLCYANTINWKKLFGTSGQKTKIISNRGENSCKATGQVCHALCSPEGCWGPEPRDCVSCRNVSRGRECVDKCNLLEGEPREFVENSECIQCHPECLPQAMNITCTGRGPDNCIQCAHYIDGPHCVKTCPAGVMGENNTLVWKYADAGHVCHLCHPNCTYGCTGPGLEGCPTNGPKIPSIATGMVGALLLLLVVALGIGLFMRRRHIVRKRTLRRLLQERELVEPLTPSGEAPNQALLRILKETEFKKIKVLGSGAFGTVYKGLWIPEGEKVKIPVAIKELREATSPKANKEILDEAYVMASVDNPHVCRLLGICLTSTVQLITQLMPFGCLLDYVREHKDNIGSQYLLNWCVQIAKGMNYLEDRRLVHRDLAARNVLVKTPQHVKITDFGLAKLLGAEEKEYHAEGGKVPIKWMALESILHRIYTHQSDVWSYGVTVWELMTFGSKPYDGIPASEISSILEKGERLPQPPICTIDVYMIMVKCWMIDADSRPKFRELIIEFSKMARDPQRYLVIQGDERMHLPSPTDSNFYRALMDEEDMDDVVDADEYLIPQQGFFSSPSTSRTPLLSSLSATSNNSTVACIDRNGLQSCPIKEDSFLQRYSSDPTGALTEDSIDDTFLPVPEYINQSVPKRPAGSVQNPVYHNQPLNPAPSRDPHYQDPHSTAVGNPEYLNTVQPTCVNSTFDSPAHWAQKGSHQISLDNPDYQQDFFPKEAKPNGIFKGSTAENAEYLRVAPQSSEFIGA

| IC50 [1] [µM] | IC50 [2] [µM] | SMILES |
| --- | --- | --- |
| 0.051 | 0.051 | O=C(Cn1ccc(-c2ccc3ncnc(Nc4ccc(OCc5cccc(F)c5)c(Cl)c4)c3c2)c1)N1CCN(CCO)CC1 |
| 0.038 | 0.729 | N[C@H]1CCCN(C(=O)Cn2ccc(-c3ccc4ncnc(Nc5ccc(OCc6cccc(F)c6)c(Cl)c5)c4c3)c2)C1 |
| 0.025 | 0.008 | CCN(CC)CCNC(=O)c1cn(-c2ccc3ncnc(Nc4ccc(OCc5ccccn5)c(Cl)c4)c3c2)cc1CCO |
| 0.009 | 0.16 | O=C(NCCN1CCCC1)c1cn(-c2ccc3ncnc(Nc4ccc(OCc5cccc(F)c5)c(Cl)c4)c3c2)cc1CCO |
| 0.006 | 0.08 | Fc1cccc(Cn2ncc3cc(Nc4ncnc5ccc(-n6cccc6)cc45)ccc32)c1 |
| 0.039 | 1.37 | Fc1cccc(COc2ccc(Nc3ncnc4ccc(-c5ccn(CCCN6CCOCC6)c5)cc34)cc2Cl)c1 |
| 0.079 | 0.295 | O=C(Cn1ccc(-c2ccc3ncnc(Nc4ccc(OCc5cccc(F)c5)c(Cl)c4)c3c2)c1)N1CCC(N2CCCCC2)CC1 |
| 0.106 | 0.24 | O=C(Cn1ccc(-c2ccc3ncnc(Nc4ccc(OCc5cccc(F)c5)c(Cl)c4)c3c2)c1)N1CCC(N2CCCC2)CC1 |
| 0.005 | 1.43 | CN1CCN(C(=O)c2cn(-c3ccc4ncnc(Nc5ccc(OCc6cccc(F)c6)c(Cl)c5)c4c3)cc2CCO)CC1 |
| 0.239 | 0.747 | Fc1cccc(COc2ccc(Nc3ncnc4ccc(-c5ccn(CCNC6CC6)c5)cc34)cc2Cl)c1 |
| 0.009 | 0.2 | CCN(CC)Cc1ccn(-c2ccc3ncnc(Nc4ccc(OCc5cccc(F)c5)c(Cl)c4)c3c2)c1 |
| 0.013 | 0.57 | CS(=O)(=O)CCNCc1ccc(-c2ccc3ncnc(Nc4ccc(OCc5ccccn5)c(Cl)c4)c3c2)[nH]1 |
| 0.008 | 0.733 | O[C@@H](CN1CCOCC1)Cn1ccc(-c2ccc3ncnc(Nc4ccc5c(cnn5Cc5cccc(F)c5)c4)c3c2)c1 |
| 0.001 | 0.43 | CS(=O)(=O)CCNCC(O)Cn1ccc(-c2ccc3ncnc(Nc4ccc5c(cnn5Cc5cccc(F)c5)c4)c3c2)c1 (stereo not given) |
| 0.009 | 1.98 | Fc1cccc(COc2ccc(Nc3ncnc4ccc(-c5ccn(CCCN6CCCCC6)c5)cc34)cc2Cl)c1 |
| 0.02 | 0.12 | CCN(CC)CC(O)Cn1ccc(-c2ccc3ncnc(Nc4ccc5c(cnn5Cc5cccc(F)c5)c4)c3c2)c1 (stereo not given) |
| 0.263 | 0.327 | O=C(Cn1ccc(-c2ccc3ncnc(Nc4ccc(OCc5cccc(F)c5)c(Cl)c4)c3c2)c1)N[C@H]1CC[C@H](O)CC1 |
| 0.004 | 0.05 | Fc1cccc(COc2ccc(Nc3ncnc4ccc(-c5cc[nH]c5)cc34)cc2Cl)c1 |
| 0.094 | 1.53 | Fc1cccc(COc2ccc(Nc3ncnc4ccc(-c5ccn(CCN6CCN(CC7CC7)CC6)c5)cc34)cc2Cl)c1 |
| 0.003 | 0.05 | O=C(c1cn(-c2ccc3ncnc(Nc4ccc(OCc5cccc(F)c5)c(Cl)c4)c3c2)cc1CCO)N1CCCCC1 |
| 0.002 | 0.768 | CN1CCN(CC(O)Cn2ccc(-c3ccc4ncnc(Nc5ccc6c(cnn6Cc6cccc(F)c6)c5)c4c3)c2)CC1 (stereo not given) |
| 0.004 | 0.21 | OCCc1cn(-c2ccc3ncnc(Nc4ccc(OCc5cccc(F)c5)c(Cl)c4)c3c2)cc1CN1CCOCC1 |

| IC50 [1] [µM] | IC50 [2] [µM] | SMILES |
| --- | --- | --- |
| 0.061 | 0.07 | Fc1ccc(Nc2ncnc3ccc(-n4cccc4)cc23)cc1Cl |
| 0.008 | 0.2 | CCN(CC)CCNCc1ccn(-c2ccc3ncnc(Nc4ccc(OCc5cccc(F)c5)c(Cl)c4)c3c2)c1 |
| 0.197 | 1.09 | O=C(C1CC1)N1CCN(CC(O)Cn2ccc(-c3ccc4ncnc(Nc5ccc(OCc6cccc(F)c6)c(Cl)c5)c4c3)c2)CC1 (stereo not given) |
| 0.03 | 0.025 | O=C(NCCN1CCOCC1)c1cn(-c2ccc3ncnc(Nc4ccc(OCc5ccccn5)c(Cl)c4)c3c2)cc1CCO |
| 0.008 | 0.81 | O=C1OCCc2cn(-c3ccc4ncnc(Nc5ccc(OCc6ccccn6)c(Cl)c5)c4c3)cc21 |
| 0.276 | 1.3 | Fc1cccc(Cn2ncc3cc(Nc4ncnc5ccc(-c6ccn(CC7CN(CCN8CCOCC8)CCO7)c6)cc45)ccc32)c1 (stereo not given) |
| 0.052 | 0.04 | OCCn1ccc(-c2ccc3ncnc(Nc4ccc(OCc5cccc(F)c5)c(Cl)c4)c3c2)c1 |
| 0.043 | 0.31 | Fc1cccc(COc2ccc(Nc3ncnc4ccc(-n5cc(CNCCCN6CCOCC6)c(C(F)(F)F)c5)cc34)cc2Cl)c1 |
| 0.003 | 0.02 | Fc1cccc(COc2ccc(Nc3ncnc4ccc(-n5ccc(CNCCN6CCOCC6)c5)cc34)cc2Cl)c1 |
| 0.08 | 0.049 | Fc1cccc(COc2ccc(Nc3ncnc4ccc(-c5ccn(Cc6ccncc6)c5)cc34)cc2Cl)c1 |
| 0.049 | 0.05 | O=C(c1cn(-c2ccc3ncnc(Nc4ccc(OCc5ccccn5)c(Cl)c4)c3c2)cc1CCO)N1CCOCC1 |
| 0.018 | 0.511 | O[C@H](CN1CCOCC1)Cn1ccc(-c2ccc3ncnc(Nc4ccc(OCc5cccc(F)c5)c(Cl)c4)c3c2)c1 |
| 0.058 | 0.4 | OC(Cn1ccc(-c2ccc3ncnc(Nc4ccc5c(cnn5Cc5cccc(F)c5)c4)c3c2)c1)Cn1ccnn1 (stereo not given) |
| 0.007 | 0.39 | OCCc1cn(-c2ccc3ncnc(Nc4ccc(OCc5cccc(F)c5)c(Cl)c4)c3c2)cc1CN1CCCC1 |
| 0.018 | 1.45 | CCN(CC)CCNCc1ccc(-c2ccc3ncnc(Nc4ccc(OCc5cccc(F)c5)c(Cl)c4)c3c2)[nH]1 |
| 0.031 | 0.32 | O[C@@H](CN1CCOCC1)Cn1ccc(-c2ccc3ncnc(Nc4ccc(OCc5cccc(F)c5)c(Cl)c4)c3c2)c1 |
| 0.001 | 1.28 | CC(=O)NC1CCN(CC(O)Cn2ccc(-c3ccc4ncnc(Nc5ccc(OCc6cccc(F)c6)c(Cl)c5)c4c3)c2)CC1 (stereo not given) |
| 0.05 | 0.78 | CS(=O)(=O)CCNCc1ccn(-c2ccc3ncnc(Nc4ccc(OCc5cccc(F)c5)c(Cl)c4)c3c2)c1 |
| 0.387 | 0.09 | Cc1ccc(Oc2ccc(Nc3ncnc4ccc(-c5cc[nH]c5)cc34)cc2C)cn1 |
| 0.079 | 0.409 | OC(CN1CCN(CC2CC2)CC1)Cn1ccc(-c2ccc3ncnc(Nc4ccc(OCc5cccc(F)c5)c(Cl)c4)c3c2)c1 (stereo not given) |
| 0.282 | 1.29 | OC(CN1CCN(Cc2cccnc2)CC1)Cn1ccc(-c2ccc3ncnc(Nc4ccc5c(cnn5Cc5cccc(F)c5)c4)c3c2)c1 (stereo not given) |
| 0.038 | 0.615 | CS(=O)(=O)CCOCC(O)Cn1ccc(-c2ccc3ncnc(Nc4ccc(OCc5cccc(F)c5)c(Cl)c4)c3c2)c1 (stereo not given) |

| IC50 [1] [µM] | IC50 [2] [µM] | SMILES |
| --- | --- | --- |
| 0.017 | 1.78 | CN1CCN(CCn2ccc(-c3ccc4ncnc(Nc5ccc(OCc6cccc(F)c6)c(Cl)c5)c4c3)c2)CC1 |
| 0.133 | 2.59 | CN(C)[C@@H]1CCN(C(=O)Cn2ccc(-c3ccc4ncnc(Nc5ccc(OCc6cccc(F)c6)c(Cl)c5)c4c3)c2)C1 |
| 0.027 | 1.39 | OCC(O)Cn1ccc(-c2ccc3ncnc(Nc4ccc(OCc5cccc(F)c5)c(Cl)c4)c3c2)c1 (stereo not given) |
| 0.095 | 0.746 | O[C@H](CN1CCC[C@@H]1CN1CCCC1)Cn1ccc(-c2ccc3ncnc(Nc4ccc(OCc5cccc(F)c5)c(Cl)c4)c3c2)c1 |
| 0.012 | 0.356 | OC(CNC1CC1)Cn1ccc(-c2ccc3ncnc(Nc4ccc5c(cnn5Cc5cccc(F)c5)c4)c3c2)c1 (stereo not given) |
| 0.007 | 0.03 | O=S1(=O)CCC(O)(CNCc2ccn(-c3ccc4ncnc(Nc5ccc(OCc6cccc(F)c6)c(Cl)c5)c4c3)c2)CC1 |
| 0.248 | 0.501 | CCN(CC)CCN1CCOC(Cn2ccc(-c3ccc4ncnc(Nc5ccc6c(cnn6Cc6cccc(F)c6)c5)c4c3)c2)C1 (stereo not given) |
| 0.011 | 0.021 | Fc1ccc(Nc2ncnc3ccc(-c4ccc[nH]4)cc23)cc1Cl |
| 0.019 | 0.749 | O[C@H](CN1CCOCC1)Cn1ccc(-c2ccc3ncnc(Nc4ccc5c(cnn5Cc5cccc(F)c5)c4)c3c2)c1 |
| 0.078 | 0.2 | COCCNC(=O)c1cn(-c2ccc3ncnc(Nc4ccc(OCc5ccccn5)c(Cl)c4)c3c2)cc1CCO |
| 0.007 | 1.1 | O=S1(=O)CCC(CNCc2cc(-c3ccc4ncnc(Nc5ccc6c(cnn6Cc6cccc(F)c6)c5)c4c3)c[nH]2)CC1 |
| 0.0026 | 0.12 | CS(=O)(=O)CCNCc1ccc(-c2ccc3ncnc(Nc4ccc(OCc5cccc(F)c5)c(Cl)c4)c3c2)[nH]1 |
| 0.036 | 0.084 | CN1CCN(CC(O)Cn2ccc(-c3ccc4ncnc(Nc5ccc(OCc6cccc(F)c6)c(Cl)c5)c4c3)c2)CC1 (stereo not given) |
| 0.236 | 0.572 | CS(=O)(=O)CCN1CCOC(Cn2ccc(-c3ccc4ncnc(Nc5ccc6c(cnn6Cc6cccc(F)c6)c5)c4c3)c2)C1 (stereo not given) |
| 0.004 | 1.08 | Fc1cccc(COc2ccc(Nc3ncnc4ccc(-c5ccc[nH]5)cc34)cc2Cl)c1 |
| 0.005 | 0.57 | O=C1OCCc2cn(-c3ccc4ncnc(Nc5ccc(OCc6cccc(F)c6)c(Cl)c5)c4c3)cc21 |
| 0.005 | 0.09 | Clc1cc(Nc2ncnc3ccc(-c4ccc[nH]4)cc23)ccc1OCc1ccccn1 |
| 0.205 | 0.477 | OCCN1CCOC(Cn2ccc(-c3ccc4ncnc(Nc5ccc6c(cnn6Cc6cccc(F)c6)c5)c4c3)c2)C1 (stereo not given) |
| 0.022 | 0.77 | O=C(Cn1ccc(-c2ccc3ncnc(Nc4ccc(OCc5cccc(F)c5)c(Cl)c4)c3c2)c1)N1CCOCC1 |
| 0.14 | 3.71 | O=C(Cn1ccc(-c2ccc3ncnc(Nc4ccc(OCc5cccc(F)c5)c(Cl)c4)c3c2)c1)NC1CCS(=O)(=O)CC1 |
| 0.011 | 0.25 | CS(=O)(=O)CCNCc1cc(-c2ccc3ncnc(Nc4ccc(OCc5cccc(F)c5)c(Cl)c4)c3c2)c[nH]1 |
